In ChEMBL document CHEMBL1157539, “Thousands of chemical starting points for antimalarial lead identification” (Nature, 2010):

Test system: Plasmodium falciparum
Experiment: GSK_TCMDC: Inhibition of Plasmodium falciparum 3D7 in whole erythrocytes, using parasite LDH activity as an index of growth.
Type: functional, organism-based
Conditions: Plasmodium falciparum, 3D7

SMILES | XC50
CCN(CC)CCN(Cc1ccc(-c2ccc(C(F)(F)F)cc2)cc1)C(=O)Cn1c(CCc2cccc(F)c2F)nc(=O)c2ccc(F)cc21 | 360 nM
Cc1ccc(NC(=O)N2CCCN(CCCCCNC(=O)/C=C/c3ccc(Cl)c(Cl)c3)CC2)cc1 | 758 nM
O=C(O)c1ccc2nc(-c3ccccn3)c(-c3ccccn3)nc2c1 | 217 nM
COc1ccc2ncc(F)c([C@@H](O)CN3CCC(NCc4cc(C#N)c5c(c4)CCO5)CC3)c2n1 | 889 nM
O=C(/C=C/c1ccc(Cl)c(Cl)c1)NC1CCC(CN2CCC(c3c[nH]c4ccccc34)C(O)C2)CC1 (stereo unspecified) | 719 nM
Cc1nn(CC(O)Cn2c3ccc(Br)cc3c3cc(Br)ccc32)c(C)c1Br (stereo unspecified) | 713 nM
Clc1ccc(Cl)c2[nH]c(CNCCCNc3nc4ccccc4[nH]3)cc12 | 163 nM
Cc1cc(N[C@@H](Cc2ccccc2)C(=O)NCc2cccc(F)c2)nc(Nc2ccccc2)n1 | 930 nM
c1cncc(Oc2ccc(Nc3ccnc4cc(-c5cccc(CN6CCCCC6)c5)ccc34)cc2)c1 | 124 nM
CS(=O)(=O)N1CC2(CCN(CCC(NC(=O)/C=C/c3ccccc3)c3ccc(Cl)c(Cl)c3)CC2)c2ccccc21 (stereo unspecified) | 782 nM
CCCCCC(C)C(C)c1cc(O)c2c(c1)OC(C)(C)CC2(O)c1ccnn1C (stereo unspecified) | 964 nM
O=c1cc(NCCCNCc2[nH]c3cc(Cl)ccc3c2Cl)[nH]c2ccccc12 | 910 nM
CC(=O)/N=C1\N=C(NC(C)=O)NC(C)(C)N1OCCCOc1ccc(Cl)c(Cl)c1 | 8.33 nM
NCC(=O)c1cc2c(cc1N)OCCO2 | 1360 nM
CCc1cc(Br)c(CNCCCNc2cc(=O)c3ccccc3[nH]2)s1 | 949 nM
Fc1cccc(COc2ccc(Nc3ncnc4cc(/C=C/[C@@H]5CCCN5)sc34)cc2Cl)c1 | 592 nM
COc1ccc(S(=O)(=O)N(CC(=O)NN=C(C)c2cccs2)c2cc(C)cc(C)c2)cc1OC | 141 nM
COc1cc(CN2CCC(C(=O)Nc3ccc(-c4cccc(C)c4)cc3)CC2)ccc1O | 1120 nM
N=c1c2nc(-c3c(F)cccc3Cl)[nH]c(=O)c2[nH]c(=O)n1-c1ccccc1 | 678 nM
O=C(Nc1cccc(CN2CCN(Cc3ccc(O)cc3)CC2)c1)c1cccc(C(F)(F)F)c1 | 1210 nM
CC(C)Oc1ccc(CCCON2C(=N)N=C(N)NC2(C)C)cc1 | 3.2 nM
COc1cc(CNC[C@@H](O)[C@H](Cc2ccccc2)NC(=O)c2cc(C3CCCC3)cc(N3CCCS3(=O)=O)c2)cc(OC)c1 | 1240 nM
CCOC(=O)c1c(C)noc1Nc1ccc(OC)cc1 | 672 nM
CC(CCCCC(=O)Nc1ccc(CC(C)NCCc2cccc(Cl)c2)cc1)NCCc1cccc(Cl)c1 (stereo unspecified) | 1010 nM
COc1ccc(NC(=O)/C=C/c2ccccc2Cl)cc1OCCN1CCC(N(C)C)CC1 | 969 nM
COc1cccc(CN2CCCN(Cc3cccc(NC(=O)c4cc5ccccc5s4)c3)CC2)c1 | 1010 nM

SMILES | XC50
c1ccc(Oc2ccc(Nc3ccnc4cc(-c5ccc(CNCCN6CCOCC6)o5)ccc34)cc2)cc1 | 439 nM
N=C(N)NC(=O)Nc1cc(Cl)c(Cl)c(Cl)c1 | 588 nM
CN1CCN(c2ccnc3ccc(NC(=O)Nc4ccc(Cl)c(Cl)c4)cc23)CC1 | 876 nM
CS(=O)(=O)CCNCc1cccc(-c2ccc3c(Nc4ccc(Oc5ccccc5)cc4)ccnc3c2)c1 | 691 nM
COc1ccc(CN2CCC(CNCC(c3ccccc3)c3ccccc3)CC2)cc1 | 228 nM
Clc1ccc(OCCC2CCN(CCCCCCN3CCCCC3)CC2)cc1Cl | 1140 nM
CCOC(=O)c1ccc(NC(=O)Nc2ccc(-c3ccc(-c4nc5cccc(C)c5[nH]4)s3)cc2)cc1 | 199 nM
N#CCCN1CCN(Cc2cccc(-c3ccc(-c4nc5cc(F)ccc5[nH]4)cc3)c2)CC1 | 599 nM
Oc1cc2c(cc1CN1CCN(Cc3cccs3)CC1)CCC2 | 839 nM
O=C1CCCN1CCCNCc1cccc(-c2ccc(-c3nc4ccccc4[nH]3)s2)c1 | 859 nM
Cc1cccc2c3c([nH]c12)C1(CCN(CCc2ccccc2)CC1)NC(C(=O)NCc1ccccc1)C3 (stereo unspecified) | 1000 nM
FC(F)(F)Oc1ccc(Nc2cc(-c3ccncc3)nc(-c3cccnc3)n2)cc1 | 672 nM
CC(C)N1CCC(NCc2ccc(-c3ccc(Cl)cc3)cc2)CC1 | 646 nM
CCOC(=O)C(Oc1ccc2ccccc2c1)C(=O)OCC | 756 nM
CC(=O)c1cccc(S(=O)(=O)NCCCNc2nc3cc(C)cc(C)c3cc2C#N)c1 | 914 nM
c1ccc2c(NCCCCCCNc3c4c(nc5ccccc35)CCCC4)c3c(nc2c1)CCCC3 | 196 nM
CCCCN1CCN(Cc2cccc(NC(=O)c3ccc(Cl)c(Cl)c3)c2)CC1 | 1160 nM
CC(C)(Oc1c(C2CCN(CCCCNC(=O)c3ccc(-c4ccc(Cl)cc4)cc3)CC2)ccc2c1CCCC2)C(N)=O | 1090 nM
CNC(=O)c1ccc2nc(C3CC3)n(CC3CCN(S(=O)(=O)c4cccc(Cl)c4)CC3)c2c1 | 651 nM
Cc1cc(NCc2ccccc2)nc2cc(O)ccc12 | 784 nM
CC(C)n1c(C2CCN(CC3CCN(C(=O)/C=C/c4ccc(Cl)c(Cl)c4)CC3)CC2)nc2ccccc21 | 1030 nM
Cc1cc2nc(-c3ccc(C(=O)NC4CCN(Cc5ccccc5)CC4)cc3)[nH]c2cc1C | 743 nM
Oc1ccc(CCCc2cc(Oc3c(I)cc(CCc4ncc[nH]4)cc3I)ccc2O)cc1 | 873 nM
CC(C)n1cc(CN2CCCC(C(=O)Nc3cccc(-c4cc5ccccc5[nH]4)c3)C2)cn1 (stereo unspecified) | 999 nM
CCc1n[nH]c(C(=O)Nc2cccc(N3CCCC3)c2)c1C | 1460 nM
COc1ccc(Cn2c(Nc3cccc(C(F)(F)F)c3)nc3ccc(C(=O)NCCN4CCCC4)cc32)cc1Cl | 753 nM

SMILES | XC50
CC(=NNC(S)=NC(C)(C)C)c1ccccn1 | 158 nM
O=C(NC1CCN(Cc2ccccc2O)C1)c1ccc(-c2ccccc2)cc1 (stereo unspecified) | 838 nM
N#Cc1ccc2c(c1)CCN(CCC1CCC(NC(=O)Nc3cnc4ccccc4c3)CC1)C2 (stereo unspecified) | 768 nM
Cc1ccc2[nH]c(-c3cc(-c4ccc(OCc5ccccc5)cc4)cnc3N)nc2c1 | 1680 nM
O=C(O)c1ccc(NC(=O)C2CC(=O)N(Cc3ccc(Cl)cc3)C(=Nc3ccc(Cl)cc3)S2)cc1 (stereo unspecified) | 530 nM
CCNC(=O)CCc1cccc(Br)c1 | 533 nM
Cc1cc(N(C)C)nc(Nc2ccc(NC(=O)C(C)Oc3ccccc3)cc2)n1 (stereo unspecified) | 952 nM
CC[C@H]1CN2CC[C@@H]1C[C@H]2[C@H](O)c1cc(N2CCC(CO)CC2)nc2ccc(OC)cc12 | 162 nM
COc1ccc(CCCCN2C(=O)C(c3ccccc3)(c3ccccc3)N=C2N)cc1 | 858 nM
N#Cc1ccc2c(c1)CCN(CCC1CCC(NC(=O)c3cc4ccc(Br)cc4[nH]3)CC1)C2 (stereo unspecified) | 756 nM
COc1ccc(CN2CCC(CNCCc3ccccc3Oc3ccccc3)CC2)cc1 | 1100 nM
Cc1cc(N2CC=CCC2)nc(NC(=N)Nc2ccc(Br)cc2)n1 | 690 nM
c1ccc(CCNCc2ccc(-c3cccc(-c4nc5ccccc5[nH]4)c3)cc2)nc1 | 619 nM
Cc1cc(-c2cccc(CNC3CCN(C)CC3)c2)ccc1S(=O)(=O)NCc1ccccc1 | 819 nM
CCN(CC)CCCC(C)Nc1ccnc2cc(C#N)ccc12 (stereo unspecified) | 139 nM
CN1CCN(Cc2cc(NC(=O)c3ccc(-c4ccc(Cl)cc4Cl)cc3)ccc2-c2ccccc2)CC1 | 973 nM
CCOc1ccc2c(=NN=Cc3cccc(F)c3)cc(C)[nH]c2c1 | 714 nM
CC(C)(C)c1cc([N+](=O)[O-])cc(C(=O)Nc2ccccc2C(F)(F)F)c1O | 652 nM
COc1ccc(CNC2CCN(C)CC2)cc1-c1ccc(S(=O)(=O)NCc2ccccc2)c(F)c1 | 800 nM
N=C1N=C(N)NC2(CCCCC2)N1OCC1CCCCC1 | 155 nM
c1ccc(C(c2cccs2)N2CCN(Cc3ccc(OCCCN4CCCCC4)cc3)CC2)cc1 (stereo unspecified) | 1230 nM
O=C(/C=C/c1ccc(Cl)c(Cl)c1)N1CCN(C(=O)Nc2ccc(C(F)(F)F)cc2)CC1 | 666 nM
CCN(CC)CC(O)c1cc(-c2ccc(C)cc2)nc2c(C)cc(C)cc12 (stereo unspecified) | 171 nM
CC(C)Cn1c(N)cc(=O)n(C)c1=O | 978 nM
CC1CCCCN1CCCNC(=O)c1cccc(-c2cc3cc(Cl)c(Cl)cc3[nH]2)c1 (stereo unspecified) | 881 nM
CC(=NO)C1=C(O)C(c2ccccc2)N(c2ccccc2)C1=O (stereo unspecified) | 701 nM

SMILES | XC50
CCOc1cccc(C(=O)Nc2ccc(-c3nc4ccccc4[nH]3)cc2)c1 | 1010 nM
CS(=O)(=O)c1ccc2[nH]c(-c3cc(-c4cccc(F)c4)cnc3N)nc2c1 | 1090 nM
Cn1c(-c2ccccc2)cc2c3c(=O)cc(C(F)(F)F)[nH]c3ccc21 | 849 nM
CC(C)Cc1cn(-c2nc(-c3nc4ccccc4[nH]3)cs2)c2ccncc12 | 90 nM
CCCNc1ccc2nccc(CCN3CCC(NCc4ccc5c(c4)NC(=O)CS5)CC3)c2n1 | 580 nM
OCCn1c(CNCCCNc2nc3ccccc3[nH]2)cc2c(Cl)cc(Cl)cc21 | 806 nM
O=C(Nc1cccc(CN2CCN(Cc3cccc(O)c3)CC2)c1)c1ccc(Cl)c(Cl)c1 | 411 nM
Cn1c2c(c3ccccc31)CN(CCC1(c3ccc(Cl)c(Cl)c3)CN(C(=O)c3ccccc3)CCO1)CC2 (stereo unspecified) | 311 nM
CCc1nonc1NC(=O)c1oc2c(C)c(C)ccc2c1C | 879 nM
Cn1c(Sc2ncnc3sccc23)nc2ccccc21 | 191 nM
CCOc1ccc(C(=O)Nc2cc(Br)c3c(c2)CNCC3)cc1C(F)(F)F | 939 nM
COc1ccc(S(=O)(=O)NCCCC2CCN(CCCCCNC(=O)C=Cc3ccc(Cl)c(Cl)c3)CC2)cc1 | 1040 nM
c1ccc(-c2n[nH]cc2Nc2ccnc3ccccc23)nc1 | 819 nM
Cn1c(N)cc(-c2cccc(I)c2)c2c(=O)nc(N)nc1-2 | 269 nM
c1cc(CN2CCN(CCN3CCOCC3)CC2)cc(-c2ccc(-c3nc4ccccc4[nH]3)cc2)c1 | 131 nM
COc1cc(OC)c(OC)cc1CN1CCC2(CC1)CN(Cc1ccc(Cl)c(Cl)c1)C(=O)O2 | 815 nM
CCN(CCNC(=O)Nc1cc(C(F)(F)F)cc(C(F)(F)F)c1)c1cccc(C)c1 | 804 nM
O=C(/C=C/c1ccc(Cl)cc1)NCCCCCN1CCC(C(=O)Nc2ccc(Cl)cc2)CC1 | 832 nM
CN1CC=C(c2c[nH]c3ccc(C(=O)c4nccs4)cc23)CC1 | 242 nM
O=C(/C=C/c1ccc(Cl)cc1)Nc1ccc2nc(CN3CCCC3)ccc2c1 | 82.1 nM
Cc1cccc2nc(-c3cccc(-c4ccc(NC(=O)CN5CCN(C)CC5)cc4)c3)[nH]c12 | 562 nM
COc1cccc(OC)c1C(=O)Nc1cccc(-c2nn3ccccc3c2-c2ccnc(Nc3cccc(F)c3)n2)c1 | 749 nM
CCCN1CCC(NCc2cn(C)nc2-c2ccc(Oc3ccccc3)cc2)CC1 | 1440 nM
